Experimental findings from ChEMBL document CHEMBL1201862, “PubChem BioAssay data set” (2004) are described below.

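Five concentrations, 48 hours, 96-well plates. GI50: concentration for 50% inhibition of growth.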 Activity calls are given as the source filed them. Cut-off read from the data, not from the text of the source: active = GI50 up to about 1.1 µM and inactive = higher. Where only a bound is given, the exact number is not on record here.

Test systems include RXF 393; SK-MEL-5; SR; LOX IMVI; OVCAR-8; Hs-578T; NCI-H226; MCF7; KM12; COLO 205; HCC 2998; MDA-MB-231; DU-145; TK-10; A549; SK-MEL-28; SNB-19; SK-MEL-2; OVCAR-5; A498.
Holding throughout (assay): NCI-60 cell line screen, 48 h

Consider `CCOC(=O)/C(C#N)=C\c1ccc(N(CCC(=O)O)CCC(=O)O)c(I)c1`, for which the GI50 in the experiment on RXF 393, in the experiment with SK-MEL-5, in the experiment with SR, in the experiment on LOX IMVI, in the experiment with OVCAR-8 and with Hs-578T was > 10 µM (inactive) in each case. The GI50 in the experiment on NCI-H226, in the experiment with MCF7, in the experiment on KM12, in the experiment on COLO 205, in the experiment with HCC 2998 and in the experiment on MDA-MB-231 was > 10 µM (inactive) each time. Moreover, the GI50 in the experiment on DU-145, in the experiment on TK-10, in the experiment with A549, in the experiment with SK-MEL-28 and in the experiment with SNB-19 was > 10 µM (inactive) each time.

`O=[N+]([O-])c1ccc(-c2nc(/C=N/N3CCCCC3)cs2)o1`: the GI50 with RXF 393 was > 100 µM (inactive); with SK-MEL-5, 18 µM (inactive); in the experiment on SR it was 30.9 µM (inactive); with OVCAR-8, 92 µM (inactive); in the experiment on SK-MEL-2, > 100 µM (inactive); in the experiment with Hs-578T, > 100 µM (inactive). The GI50 with OVCAR-5 was > 100 µM (inactive); in the experiment on NCI-H226, > 100 µM (inactive); in the experiment with MCF7, 38.6 µM (inactive); in the experiment on KM12, 33.9 µM (inactive); in the experiment on COLO 205, 30.2 µM (inactive); in the experiment on MDA-MB-231, 48.4 µM (inactive). Moreover, the GI50 in the experiment on DU-145 is > 100 µM (inactive); with TK-10, > 100 µM (inactive); with A549 it was 40 µM (inactive); in the experiment with SK-MEL-28, 31.6 µM (inactive); with SNB-19 it was > 100 µM (inactive).

For the molecule `O=C(N/N=C(COc1ccccc1)\N=C\c1ccncc1)c1ccncc1`, the GI50 in the experiment on A498, with RXF 393, with LOX IMVI, with OVCAR-8, with SK-MEL-2 and in the experiment with Hs-578T was > 100 µM (inactive) throughout. The GI50 in the experiment on OVCAR-5, in the experiment on MCF7, in the experiment on KM12, with COLO 205, in the experiment with HCC 2998 and with MDA-MB-231 was > 100 µM (inactive) each time. Further, the GI50 in the experiment on DU-145, in the experiment with TK-10, in the experiment with A549, with SK-MEL-28 and in the experiment with SNB-19 was > 100 µM (inactive) each time.

For the molecule `CC(C)(CO)NC(=O)Nc1c(C(F)(F)F)cc(-c2ccccc2)[nH]c1=O`, the GI50 in the experiment on A498, in the experiment with RXF 393, with SK-MEL-5, in the experiment with LOX IMVI, with OVCAR-8 and with SK-MEL-2 was > 100 µM (inactive) each time. The GI50 with Hs-578T, with OVCAR-5, with NCI-H226, in the experiment with MCF7, with KM12 and in the experiment with COLO 205 was > 100 µM (inactive) each time. Moreover, the GI50 with HCC 2998, in the experiment with MDA-MB-231, in the experiment with DU-145, in the experiment with TK-10, in the experiment with A549 and with SK-MEL-28 was > 100 µM (inactive) each time. The GI50 with SNB-19 is > 100 µM (inactive).

With `Cc1occc1C(=S)Nc1ccc(Cl)c(C(=O)OCC(C)C)c1`, the GI50 was 15.9 µM (inactive) in the experiment with A498; 15.4 µM (inactive) in the experiment with SK-MEL-5; 14.9 µM (inactive) with LOX IMVI; 15.8 µM (inactive) with OVCAR-8; 19.5 µM (inactive) in the experiment with SK-MEL-2; 25.1 µM (inactive) with Hs-578T. In addition, the GI50 with OVCAR-5 was 31.8 µM (inactive); in the experiment on NCI-H226, 15.3 µM (inactive); in the experiment on MCF7, 14.6 µM (inactive); in the experiment with KM12, 14.4 µM (inactive); in the experiment with COLO 205, 16.3 µM (inactive); in the experiment on HCC 2998 it was 18.9 µM (inactive). Also, the GI50 in the experiment on MDA-MB-231 was 16.6 µM (inactive); with DU-145, 18.3 µM (inactive); with TK-10 it was 17.3 µM (inactive); in the experiment on A549 it was 20.3 µM (inactive); in the experiment with SK-MEL-28, 16.3 µM (inactive); in the experiment with SNB-19, 17.1 µM (inactive).

For the molecule `CCN1C(=O)C(=C/C=C/c2ccc([N+](=O)[O-])cc2)C(=O)N(CC)C1=S`, the GI50 with RXF 393 was 17 µM (inactive); with SK-MEL-5, 20.8 µM (inactive); with LOX IMVI it was 18.3 µM (inactive); in the experiment with OVCAR-8 it was 20.9 µM (inactive); in the experiment on SK-MEL-2, 23.8 µM (inactive); in the experiment on Hs-578T it was 15.3 µM (inactive). The GI50 in the experiment with OVCAR-5 was > 100 µM (inactive); in the experiment on NCI-H226, 25.4 µM (inactive); in the experiment on MCF7, 23.6 µM (inactive); with KM12 it was 22.3 µM (inactive); in the experiment with COLO 205, 35.1 µM (inactive); in the experiment with HCC 2998 it was 43.4 µM (inactive). In addition, the GI50 was 21.3 µM (inactive) in the experiment with MDA-MB-231; 17.6 µM (inactive) in the experiment with DU-145; 19.4 µM (inactive) in the experiment with TK-10; > 100 µM (inactive) in the experiment on A549; 18 µM (inactive) in the experiment on SK-MEL-28; 37.9 µM (inactive) in the experiment with SNB-19.

Consider `COc1cc(C=C2C(=O)NC(=S)NC2=O)cc(OC)c1OC`, for which the GI50 with RXF 393, with SK-MEL-5, in the experiment on LOX IMVI, in the experiment with OVCAR-8, with SK-MEL-2 and with Hs-578T was > 100 µM (inactive) throughout. Besides, the GI50 with OVCAR-5, in the experiment with NCI-H226, with MCF7, in the experiment on KM12, in the experiment with COLO 205 and in the experiment on HCC 2998 was > 100 µM (inactive) each time. For the same molecule, the GI50 in the experiment with MDA-MB-231, with DU-145, with TK-10, with A549, in the experiment with SK-MEL-28 and with SNB-19 was > 100 µM (inactive) in each case.

With `CCCN1C(=O)CC(C)N(Cc2ccccc2Cl)C1=S` (stereo not given), the GI50 is 14.2 µM (inactive) in the experiment with A498; 3.9 µM (inactive) with RXF 393; 17.8 µM (inactive) in the experiment with SK-MEL-5; 22.3 µM (inactive) in the experiment on LOX IMVI; 27.2 µM (inactive) with OVCAR-8; 21.7 µM (inactive) in the experiment on SK-MEL-2. Further, the GI50 in the experiment on Hs-578T was 30.8 µM (inactive); in the experiment with OVCAR-5, 50.2 µM (inactive); in the experiment on MCF7, 26.5 µM (inactive); with KM12, 28.9 µM (inactive); with COLO 205, 16.9 µM (inactive); with MDA-MB-231, 28.7 µM (inactive). Also, the GI50 in the experiment with DU-145 was 26.4 µM (inactive); in the experiment on TK-10, 25 µM (inactive); in the experiment with A549 it was 35.3 µM (inactive); with SK-MEL-28, 22.9 µM (inactive); with SNB-19, 46.1 µM (inactive).

For the molecule `N#Cc1sc2c(c1OC(=O)c1cccs1)c(=O)n(-c1ccccc1)c(=S)n2-c1ccccc1`, the GI50 in the experiment on RXF 393 was 14.9 µM (inactive); with SK-MEL-5, 16 µM (inactive); with SR it was 25.6 µM (inactive); with LOX IMVI it was 20.3 µM (inactive); in the experiment with OVCAR-8, 25.9 µM (inactive); in the experiment with SK-MEL-2 it was 21.1 µM (inactive). Besides, the GI50 was 15.2 µM (inactive) in the experiment with Hs-578T; 19.5 µM (inactive) in the experiment on NCI-H226; 21.5 µM (inactive) in the experiment on MCF7; 18.9 µM (inactive) in the experiment with KM12; 19.9 µM (inactive) with COLO 205; 20.1 µM (inactive) in the experiment on MDA-MB-231. In addition, the GI50 in the experiment with DU-145 is 32.4 µM (inactive); in the experiment on TK-10, 31 µM (inactive); in the experiment with A549, 31 µM (inactive); in the experiment on SK-MEL-28, 21.9 µM (inactive); in the experiment on SNB-19 it was 26.5 µM (inactive).

Turning to `OC(c1ccc(Br)cc1)(c1cccs1)C1CC1` (stereo not given), the GI50 with A498 is 21.5 µM (inactive); with RXF 393, 18.6 µM (inactive); with SK-MEL-5, 18.7 µM (inactive); with LOX IMVI, 21.1 µM (inactive); with OVCAR-8, 24.4 µM (inactive); with SK-MEL-2, 20.4 µM (inactive). For the same molecule, the GI50 with Hs-578T is 22.3 µM (inactive); in the experiment with OVCAR-5 it was 26.7 µM (inactive); in the experiment with MCF7, 28.2 µM (inactive); in the experiment with KM12 it was 17.7 µM (inactive); with COLO 205, 19.2 µM (inactive); in the experiment on HCC 2998, 23.6 µM (inactive). For the same molecule, the GI50 with MDA-MB-231 was 18.3 µM (inactive); with DU-145 it was 26.1 µM (inactive); in the experiment on TK-10, 27.9 µM (inactive); in the experiment on A549, 35.7 µM (inactive); with SK-MEL-28, 22.2 µM (inactive); in the experiment with SNB-19 it was 41.1 µM (inactive).

For `CC1=CC(C)C/C=C/C2C3OC3(C)C(C)C3C(Cc4c[nH]c5ccccc45)NC(=O)C23C(=O)C=CC(=O)C1O` (stereo not given), the GI50 is 0.213 µM (active) in the experiment with A498; 1.38 µM (inactive) with RXF 393; 10.7 µM (inactive) in the experiment on SK-MEL-5; 2.88 µM (inactive) in the experiment with LOX IMVI; 19.5 µM (inactive) in the experiment on OVCAR-8; 15.8 µM (inactive) in the experiment with SK-MEL-2. Moreover, the GI50 was 3.72 µM (inactive) in the experiment with Hs-578T; 12.5 µM (inactive) with OVCAR-5; 12.9 µM (inactive) with NCI-H226; 5.78 µM (inactive) with MCF7; 15.2 µM (inactive) in the experiment with KM12; 0.354 µM (active) in the experiment with COLO 205. The GI50 in the experiment with HCC 2998 was 2.6 µM (inactive); with MDA-MB-231, 4.67 µM (inactive); in the experiment with DU-145 it was 14.1 µM (inactive); in the experiment on TK-10, 1.53 µM (inactive); in the experiment with A549 it was 8.3 µM (inactive); with SK-MEL-28 it was 14.7 µM (inactive). In addition, in the experiment with SNB-19, the GI50 is 11 µM (inactive).
